Reference: patent publication US20200390722A1, “COMPOSITIONS AND METHODS FOR THE REMOVAL OF EAR WAX” (Specialty Drug and Device, LLC, priority 2016, published 2020)

Key:
accumulation of ear wax [1] = assay: Prophylaxis to prevent or retard accumulation of ear wax, one dog (Example 4); format: in vivo
Experimental: (§1) The effectiveness of F6H8 as a prophylaxis to prevent or retard accumulation of ear wax was evaluated in one human and one dog. The ear canal of the person and the canine were cleaned thoroughly prior to the evaluation of prophylaxis with SFA. Then, on a regular basis (five of seven days on average), 20-25 ul of F6H8 were applied to a cotton bud and the right ear only of each subjects was gently swabbed for about 15 seconds. In each instance, the contralateral ear served as a control in this study. […] Visual observation was confirmed by using a clean cotton bud to swab each ear of both subjects for 10-15 seconds.

[2] = Cotton bud laden with dog ear wax swirled through about 1 ml F6H8 (initial studies, Example 1); conditions: dog cerumen on cotton bud swirled or shaken in F6H8; hair particles etc. not dissolved
Source text: (§2) In these studies, which are reflected below in Table 1, samples of ear wax were collected on cotton buds from animals or humans. A portion of each sample was placed into a small tube containing an SFA (F6H8) and gently shaken.
(§3) The invention is based in substantial part upon initial studies that provided surprising results. A small quantity of F6H8 semi-fluorinated alkane was placed into each of 5 test tubes. Samples of cerumen from animal or human ears were collected on cotton buds. Sufficient ear wax was collected that quantities of the material were visible on cotton buds used to harvest the materials. Separate cotton buds were used to collect cerumen from four dogs and two humans. In a step-wise manner, one cotton bud, laden with ear wax, was gently swirled through a single test tube containing an aliquot of F6H8 SFA. The study was repeated three times for cotton buds with ear wax from dogs and a second series of two tests, as previously described, were carried-out with cotton buds laden with human cerumen. […] Importantly, in the study the cerumen was dissolved by the SFA but the other matter (hair particles, etc.) were not dissolved. […] Such products include MURINE® Ear Drops, DEBROX® Earwax Removal, Flents Earwax Remover, and CERUMENEX® and also includes patents for compositions containing glycerin, glycols, peroxide plus urea and cyclodextrin containing compositions. […]

[3] = Test-tube comparison of SFA (F6H8) and common remedies on about 100 mg human ear wax (Example 2); parameters: key to Effects on Ear Wax (Cerumen) Samples: NC, No Change; BP, Bubbles Produced; SG, Softening; FD, Fully Dispersed; conditions: for Effects on Ear Wax (Cerumen) Samples: Human; for Visible changes to ear wax samples (in words): human, 30 seconds with gentle agitation
Experimental: (§4) Approximately 100 mg of human ear wax was weighed into each of four small test tubes and numbered 1-4. In a second series, approximately 100 mg of animal cerumen from dogs was placed into four different test tubes and numbered 5-8. About 1 ml of the following material was then added to the respective dishes as follows: (1) to tubes #1 and 5, F6H8; (2) to tubes #2 and 6, hydrogen peroxide, 3%; (3) to tubes #3 and 7, carbamide peroxide, 6.5% (Murine Earwax Removal Drops); and (4) to tubes #4 and 8, sodium bicarbonate, 5% (prepared by dissolved 5 grams of sodium bicarbonate in 100 ml of distilled water. Results of these studies are presented in Table 1, below.

accumulation of ear wax [4] = assay: Prophylaxis to prevent or retard accumulation of ear wax, one human (Example 4); format: in vivo
Experimental: as §1

[5] = Test-tube comparison of SFA (F6H8) and common remedies on about 100 mg dog cerumen (Example 2); parameters: key to Effects on Ear Wax (Cerumen) Samples: NC, No Change; BP, Bubbles Produced; SG, Softening; FD, Fully Dispersed; conditions: for Effects on Ear Wax (Cerumen) Samples: Dog; for Visible changes to ear wax samples (in words): dog, 30 seconds with gentle agitation
Experimental: as §4

[6] = Cotton bud laden with human ear wax swirled through about 1 ml F6H8 (initial studies, Example 1); conditions: human cerumen on cotton bud swirled or shaken in F6H8; hair particles etc. not dissolved
Source text: as §2, §3

[7] = 20-25 ul on cotton bud, about five of seven days, end of three month trial
[8] = swab 10-15 seconds at end of three month trial
[9] = 30 Seconds, about 1 ml on approx. 100 mg ear wax, gentle agitation
[10] = 30 Seconds, about 1 ml on approx. 100 mg cerumen, gentle agitation

SMILES | Visual observation of treated right ear vs untreated contralateral ear (accumulation of ear wax [1]; [7]) | Ear wax collected by clean cotton bud from treated right ear vs untreated left ear (accumulation of ear wax [1]; [8]) | Dissolution of cerumen from the ear wax sample (in words) [2] | Effects on Ear Wax (Cerumen) Samples ([3]; 5 Minutes) | Effects on Ear Wax (Cerumen) Samples ([3]; 15 Minutes) | Effects on Ear Wax (Cerumen) Samples [3, 9] | Visual observation of treated right ear vs untreated contralateral ear (accumulation of ear wax [4]; [7]) | Ear wax collected by clean cotton bud from treated right ear vs untreated left ear (accumulation of ear wax [4]; [8]) | Effects on Ear Wax (Cerumen) Samples ([5]; 5 Minutes) | Effects on Ear Wax (Cerumen) Samples ([5]; 15 Minutes) | Effects on Ear Wax (Cerumen) Samples [5, 10] | Dissolution of cerumen from the ear wax sample (in words) [6] | Visible changes to ear wax samples (in words) [3] | Visible changes to ear wax samples (in words) [5]
CCCCCCCCC(F)(F)C(F)(F)C(F)(F)C(F)(F)C(F)(F)C(F)(F)F [SFA (F6H8)] | visibly cleaner and contained less ear wax and associated hair and other debris | collected less ear wax | dissolved completely | FD | FD | FD | visibly cleaner and contained less ear wax and associated hair and other debris | collected less ear wax | FD | FD | FD | dissolved completely |  | 
OO [Hydrogen Peroxide, 3%, hydrogen peroxide] |  |  |  | BP | SG and BP, | NC |  |  | BP | SG and BP, | NC |  | failed to produce visible changes | failed to produce visible changes
O=C([O-])O.[Na+] [Sodium Bicarbinate, 5%, sodium bicarbonate] |  |  |  | NC | NC | NC |  |  | NC | NC | NC |  | failed to produce visible changes | failed to produce visible changes
